Experimental data published in US20120115845A1, “THERAPEUTIC AGENTS” (priority 2007, published 2012).

How the values were obtained:
human GHS receptor [1] = molecular target: T1, human GHS receptor (Homo sapiens, UniProt Q92847); assay: h bind IC50 (binding assay, Table 1); settings: human receptor; Table 1
human GHS receptor [2] = molecular target: T1, human GHS receptor; assay: Ghrelin IP1 agonist assay (IP1 HTRF); format: cell-based; design: expressed in transfected cells; host or cells: HEK293s; settings: for Emax: 2 h, agonist effect as % maximal effect of GHRP-6 (5 μM), read-out: h IP1 ag %; for EC50: HEK293s cells stably expressing human GHS receptor, 2 hours at 37° C., read-out: h IP1 ag EC50
Description: In HEK293s cells stably expressing human GHS receptor (In-house), agonist activity was assessed by measuring intracellular myo-Inositol 1 phosphate (IP1) using the IP1 HTRF assay kit (Cisbio International).
Cells were harvested using accutase (Sigma), spun down at 1000 rpm for 5 minutes and resuspended in stimulation buffer (as above) containing 0.02% fatty acid free BSA at a density of 1.43E6cells/ml.
Agonist effect of the compound was expressed as % maximal effect of GHRP-6 (5 μM: Bachem). Sigmoidal curves were fitted by Origin 7.5 Client and EC50 values determined.

T1 sequence (Q92847 whole entry): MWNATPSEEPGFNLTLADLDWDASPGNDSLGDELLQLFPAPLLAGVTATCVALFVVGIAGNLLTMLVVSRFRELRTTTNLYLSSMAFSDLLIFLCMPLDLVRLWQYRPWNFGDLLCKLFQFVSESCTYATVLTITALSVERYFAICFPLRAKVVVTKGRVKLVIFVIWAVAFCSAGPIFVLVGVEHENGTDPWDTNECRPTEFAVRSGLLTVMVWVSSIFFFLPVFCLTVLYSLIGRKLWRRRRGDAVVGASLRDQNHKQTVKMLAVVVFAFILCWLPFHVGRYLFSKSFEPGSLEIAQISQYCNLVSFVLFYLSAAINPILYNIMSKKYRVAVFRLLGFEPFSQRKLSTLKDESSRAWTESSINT

With `O=C(NC(=O)c1ccccc1Cl)Nc1nc2ccc(S(=O)(=O)CCN3CCOCC3)cc2s1` [Example 1, 2-Chloro-N-[[6-(2-morpholin-4-ylethylsulfonyl)benzothiazol-2-yl]carbamoyl]benzamide] the IC50 (human GHS receptor [1]) was 64.4 nM, the Emax (human GHS receptor [2]) was 24% and the EC50 (human GHS receptor [2]) was 29.2 nM.

For `COCCNCCS(=O)(=O)c1ccc2nc(NC(=O)NC(=O)c3ccccc3Cl)sc2c1` [Example 2, 2-Chloro-N-[[6-[2-(2-methoxyethylamino)ethylsulfonyl]benzothiazol-2-yl]carbamoyl]benzamide], the IC50 (human GHS receptor [1]) was 13.3 nM, the Emax (human GHS receptor [2]) was 40.8% and the EC50 (human GHS receptor [2]) was 17.6 nM.

In the case of `CNCCS(=O)(=O)c1ccc2nc(NC(=O)NC(=O)c3ccccc3Cl)sc2c1` [Example 4, 2-Chloro-N-[[6-(2-methylaminoethylsulfonyl)benzothiazol-2-yl]carbamoyl]benzamide], the IC50 (human GHS receptor [1]) is reported as 77.3 nM, the Emax (human GHS receptor [2]) is reported as 58.5% and the EC50 (human GHS receptor [2]) is reported as 9.46 nM.

`O=C(NC(=O)c1ccccc1Cl)Nc1nc2ccc(S(=O)(=O)CCN3CCNCC3)cc2s1` [Example 8, 2-Chloro-N-[[6-(2-piperazin-1-ylethylsulfonyl)benzothiazol-2-yl]carbamoyl]benzamide] gave an IC50 (human GHS receptor [1]) of 69.6 nM, an Emax (human GHS receptor [2]) of 39.9% and an EC50 (human GHS receptor [2]) of 36.4 nM.

In the case of `CC(C)NCCS(=O)(=O)c1ccc2nc(NC(=O)NC(=O)c3ccccc3Cl)sc2c1` [Example 10, 2-Chloro-N-[[6-[2-(propan-2-ylamino)ethylsulfonyl]benzothiazol-2-yl]carbamoyl]benzamide], the IC50 (human GHS receptor [1]) is reported as 27.3 nM, the Emax (human GHS receptor [2]) is reported as 44.1% and the EC50 (human GHS receptor [2]) is reported as 18.9 nM.

Work on `O=C(NC(=O)c1ccccc1Cl)Nc1nc2ccc(S(=O)(=O)CCN3CCC3)cc2s1` [Example 13, N-[[6-[2-(Azetidin-1-yl)ethylsulfonyl]benzothiazol-2-yl]carbamoyl]-2-chloro-benzamide] yielded an IC50 (human GHS receptor [1]) of 162 nM, an Emax (human GHS receptor [2]) of 52.5% and an EC50 (human GHS receptor [2]) of 55.5 nM.

`O=C(NC(=O)c1ccccc1Cl)Nc1nc2ccc(S(=O)(=O)CCNCCO)cc2s1` [Example 14, 2-Chloro-N-[[6-[2-(2-hydroxyethylamino)ethylsulfonyl]benzothiazol-2-yl]carbamoyl]benzamide] was tested, and the IC50 (human GHS receptor [1]) was 321 nM, the Emax (human GHS receptor [2]) was 47.6% and the EC50 (human GHS receptor [2]) was 166 nM.

Work on `O=C(NC(=O)c1ccccc1Cl)Nc1nc2ccc(S(=O)(=O)CCN3CC[C@H](F)C3)cc2s1` [Example 16, 2-Chloro-N-[[6-[2-[(3S)-3-fluoropyrrolidin-1-yl]ethylsulfonyl]benzothiazol-2-yl]carbamoyl]benzamide] yielded an IC50 (human GHS receptor [1]) of 100 nM, an Emax (human GHS receptor [2]) of 34.1% and an EC50 (human GHS receptor [2]) of 64.4 nM.

In the case of `O=C(NC(=O)c1ccccc1Cl)Nc1nc2ccc(S(=O)(=O)CCNC3CCCC3)cc2s1` [Example 17, 2-Chloro-N-[[6-[2-(cyclopentylamino)ethylsulfonyl]benzothiazol-2-yl]carbamoyl]benzamide], the IC50 (human GHS receptor [1]) is reported as 80.4 nM, the Emax (human GHS receptor [2]) is reported as 42.1% and the EC50 (human GHS receptor [2]) is reported as 6.03 nM.

`CC1CCC(C)N1CCS(=O)(=O)c1ccc2nc(NC(=O)NC(=O)c3ccccc3Cl)sc2c1` (stereo not drawn) [Example 18, 2-Chloro-N-[[6-[2-(2,5-dimethylpyrrolidin-1-yl)ethylsulfonyl]benzothiazol-2-yl]carbamoyl]benzamide] was tested, and the IC50 (human GHS receptor [1]) was 252 nM, the Emax (human GHS receptor [2]) was 47% and the EC50 (human GHS receptor [2]) was 53.6 nM.

For `O=C(NC(=O)c1ccccc1Cl)Nc1nc2ccc(S(=O)(=O)CCN3CCC(F)(F)C3)cc2s1` [Example 21, 2-Chloro-N-[[6-[2-(3,3-difluoropyrrolidin-1-yl)ethylsulfonyl]benzothiazol-2-yl]carbamoyl]benzamide], the IC50 (human GHS receptor [1]) was 1680 nM, the Emax (human GHS receptor [2]) was 16.9% and the EC50 (human GHS receptor [2]) was 221 nM.

With `CC1CN(CCS(=O)(=O)c2ccc3nc(NC(=O)NC(=O)c4ccccc4Cl)sc3c2)CC(C)N1` (stereo not drawn) [Example 24, 2-Chloro-N-[[6-[2-(3,5-dimethylpiperazin-1-yl)ethylsulfonyl]benzothiazol-2-yl]carbamoyl]benzamide] the IC50 (human GHS receptor [1]) was 25.3 nM, the Emax (human GHS receptor [2]) was 54% and the EC50 (human GHS receptor [2]) was 6.43 nM.

With `O=C(NC(=O)c1ccccc1Cl)Nc1nc2ccc(S(=O)(=O)CCNC3CCC3)cc2s1` [Example 25, 2-Chloro-N-[[6-[2-(cyclobutylamino)ethylsulfonyl]benzothiazol-2-yl]carbamoyl]benzamide] the IC50 (human GHS receptor [1]) was 189 nM, the Emax (human GHS receptor [2]) was 34.7% and the EC50 (human GHS receptor [2]) was 13.8 nM.

In the case of `CN(CCS(=O)(=O)c1ccc2nc(NC(=O)NC(=O)c3ccccc3Cl)sc2c1)CC1CCCO1` (stereo not drawn) [Example 26, 2-Chloro-N-[[6-[2-(methyl-(oxolan-2-ylmethyl)amino)ethylsulfonyl]benzothiazol-2-yl]carbamoyl]benzamide], the IC50 (human GHS receptor [1]) is reported as 428 nM, the Emax (human GHS receptor [2]) is reported as 26.1% and the EC50 (human GHS receptor [2]) is reported as 623 nM.

In the case of `O=C(NC(=O)c1ccccc1Cl)Nc1nc2ccc(S(=O)(=O)CCCN3CCC3)cc2s1` [Example 147, N-[[6-[3-(Azetidin-1-yl)propylsulfonyl]benzothiazol-2-yl]carbamoyl]-2-chloro-benzamide], the IC50 (human GHS receptor [1]) is reported as 78.8 nM.

Compound `O=C(NC(=O)c1ccccc1Cl)Nc1nc2ccc(S(=O)(=O)CCCN3CCCC3)cc2s1` [Example 149, 2-Chloro-N-[[6-(3-pyrrolidin-1-ylpropylsulfonyl)benzothiazol-2-yl]carbamoyl]benzamide] has an IC50 (human GHS receptor [1]) of 52.2 nM.

In the case of `O=C(NC(=O)c1ccccc1Cl)Nc1nc2ccc(S(=O)(=O)CCCN3CCC(F)(F)C3)cc2s1` [Example 154, 2-Chloro-N-[[6-[3-(3,3-difluoropyrrolidin-1-yl)propylsulfonyl]benzothiazol-2-yl]carbamoyl]benzamide], the IC50 (human GHS receptor [1]) is reported as 117 nM.

Work on `O=C(NC(=O)c1ccccc1Cl)Nc1nc2ccc(S(=O)(=O)C[C@H]3CCCN3CC3CC3)cc2s1` [Example 156, 2-Chloro-N-[[6-[[(2R)-1-(cyclopropylmethyl)pyrrolidin-2-yl]methylsulfonyl]benzothiazol-2-yl]carbamoyl]benzamide] yielded an IC50 (human GHS receptor [1]) of 64 nM.

With `O=C(NC(=O)c1ccccc1Cl)Nc1nc2ccc(S(=O)(=O)CCCN3CCC(F)C3)cc2s1` (stereo not drawn) [Example 157, 2-Chloro-N-[[6-[3-(3-fluoropyrrolidin-1-yl)propylsulfonyl]benzothiazol-2-yl]carbamoyl]benzamide] the IC50 (human GHS receptor [1]) was 78.5 nM.

Work on `O=C(NC(=O)c1ccccc1Cl)Nc1nc2ccc(S(=O)(=O)CCCN3CCC(F)(F)CC3)cc2s1` [Example 158, 2-Chloro-N-[[6-[3-(4,4-difluoro-1-piperidyl)propylsulfonyl]benzothiazol-2-yl]carbamoyl]benzamide] yielded an IC50 (human GHS receptor [1]) of 104 nM.

`O=C(NC(=O)c1ccccc1Cl)Nc1nc2ccc(S(=O)(=O)CCCN3CCC(O)C3)cc2s1` (stereo not drawn) [Example 160, 2-Chloro-N-[[6-[3-(3-hydroxypyrrolidin-1-yl)propylsulfonyl]benzothiazol-2-yl]carbamoyl]benzamide] gave an IC50 (human GHS receptor [1]) of 29.6 nM.

Work on `CCN1CCC(S(=O)(=O)c2ccc3nc(NC(=O)NC(=O)c4ccccc4Cl)sc3c2)C1` (stereo not drawn) [Example 163, 2-Chloro-N-[[6-(1-ethylpyrrolidin-3-yl)sulfonylbenzothiazol-2-yl]carbamoyl]benzamide] yielded an IC50 (human GHS receptor [1]) of 613 nM.

With `CN1CCC(S(=O)(=O)c2ccc3nc(NC(=O)NC(=O)c4ccccc4Cl)sc3c2)C1` (stereo not drawn) [Example 167, 2-Chloro-N-[[6-(1-methylpyrroldin-3-yl)sulfonylbenzothazol-2-yl]carbamoyl]benzamide] the IC50 (human GHS receptor [1]) was 109 nM.

For `CN1CCC[C@@H]1CS(=O)(=O)c1ccc2nc(NC(=O)NC(=O)c3ccccc3Cl)sc2c1` [Example 169, 2-Chloro-N-[[6-[[(2R)-1-methylpyrrolidin-2-yl]methylsulfonyl]benzothiazol-2-yl]carbamoyl]benzamide], the IC50 (human GHS receptor [1]) was 151 nM.

For `CC(C)N1CCC(S(=O)(=O)c2ccc3nc(NC(=O)NC(=O)c4ccccc4Cl)sc3c2)CC1` [Example 174, 2-Chloro-N-[[6-[(1-propan-2-yl-4-piperidyl)sulfonyl]benzothiazol-2-yl]carbamoyl]benzamide], the IC50 (human GHS receptor [1]) was 139 nM.

`O=C(NC(=O)c1ccccc1Cl)Nc1nc2ccc(S(=O)(=O)C3CCNCC3)cc2s1` [Example 176, 2-Chloro-N-[[6-(4-piperidylsulfonyl)benzothiazol-2-yl]carbamoyl]benzamide] showed an IC50 (human GHS receptor [1]) of 13.2 nM.

With `CN1CCC(S(=O)(=O)c2ccc3nc(NC(=O)NC(=O)c4ccccc4Cl)sc3c2)CC1` [Example 184, 2-Chloro-N-[[6-[(1-methyl-4-piperidyl)sulfonyl]benzothiazol-2-yl]carbamoyl]benzamide] the IC50 (human GHS receptor [1]) was 33.7 nM.

Compound `CC(C)N1CC(S(=O)(=O)c2ccc3nc(NC(=O)NC(=O)c4ccccc4Cl)sc3c2)C1` [Example 186, 2-Chloro-N-[[6-(1-propan-2-ylazetidin-3-yl)sulfonylbenzothiazol-2-yl]carbamoyl]benzamide] has an IC50 (human GHS receptor [1]) of 34.1 nM.

`COc1cc(Cl)c(C(=O)NC(=O)Nc2nc3ccc(S(=O)(=O)C4CCNCC4)cc3s2)cc1-n1cccn1` [Example 263, 2-chloro-4-methoxy-N-(6-(piperidin-4-ylsulfonyl)benzo [d]thiazol-2-ylcarbamoyl) 5-(1H-pyrazol-1-yl)benzamide] was tested, and the IC50 (human GHS receptor [1]) was 1.12 nM.

`CC(C)Oc1cc(Cl)c(C(=O)NC(=O)Nc2nc3ccc(S(=O)(=O)C4CCN(C)CC4)cc3s2)cc1-n1cccn1` [Example 267, 2-chloro-4-isopropoxy-N-(6-(1-methylpiperidin-4-ylsulfonyl)benzo [d]thiazol-2-ylcarbamoyl) 5-(1H-pyrazol-1-yl)benzamide] showed an IC50 (human GHS receptor [1]) of 1.5 nM.

For `CN(C)C1CC(Oc2ccc(Cl)c(C(=O)NC(=O)Nc3nc4ccc(S(C)(=O)=O)cc4s3)c2)C1` (stereo not drawn) [Example 269, 2-Chloro-5-(3-dimethylaminocyclobutoxy)-N-[(6-methylsulfonyl-1,3-benzothiazol-2-yl)carbamoyl]benzamide], the IC50 (human GHS receptor [1]) was 8730 nM.

In the case of `CN(C)CC1CCN(c2ccc(Cl)c(C(=O)NC(=O)Nc3nc4ccc(S(C)(=O)=O)cc4s3)c2)C1` (stereo not drawn) [Example 270, 2-Chloro-5-[3-(dimethylaminomethyl)pyrrolidin-1-yl]-N-[(6-methylsulfonyl-1,3-benzothiazol-2-yl)carbamoyl]benzamide], the IC50 (human GHS receptor [1]) is reported as 762 nM.
